The record followed here is PubChem BioAssay (NCI).

SMILES strings stand for the structures.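 1) Cells in 96-well plates. 2) Compound, 48 h, 5 concentrations. 3) Linear interpolation between surrounding doses. 4) Unreached endpoint = highest concentration. Definition used: TGI = concentration required for complete inhibition of growth.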 Bounds are passed on as bounds.

Among the test systems are SNB-75 CNS; RXF 393 renal; RPMI-8226 leukemia; MCF7 breast; SK-OV-3 ovarian; CAKI-1 renal; OVCAR-8 ovarian; OVCAR-4 ovarian; SF-295 CNS; UO-31 renal; HL-60(TB) leukemia; A549 NSCLC; MDA-MB-435; NCI-H226 lung; HOP-92 NSCLC; MDA-N; SK-MEL-2 melanoma; SF-268 CNS; OVCAR-5 ovarian; SN12C renal.
Test in all cases: inhibition of tumour cell growth, NCI panel, 48 h

`CCOC(=O)C1=C(OS(=O)(=O)C(F)(F)F)CCCC1`: the TGI in the assay with SNB-75 CNS, in the assay with RXF 393 renal, in the assay on RPMI-8226 leukemia, in the assay with MCF7 breast, in the assay on SK-OV-3 ovarian and with CAKI-1 renal was greater than 100 µM in each case. Also, the TGI with OVCAR-8 ovarian, in the assay with OVCAR-4 ovarian, in the assay with SF-295 CNS, in the assay on UO-31 renal, with HL-60(TB) leukemia and in the assay with A549 NSCLC was greater than 100 µM each time. The TGI in the assay with MDA-MB-435, with NCI-H226 lung, in the assay on HOP-92 NSCLC, in the assay with MDA-N, in the assay with SK-MEL-2 melanoma and in the assay on SF-268 CNS was greater than 100 µM in each case. Besides, the TGI with OVCAR-5 ovarian is greater than 100 µM.
For `O=c1c2c(sc3ccccc13)NCN(CCc1ccccc1)C2`, the TGI in the assay with SNB-75 CNS is 78.2 µM; in the assay on RXF 393 renal, greater than 100 µM; with RPMI-8226 leukemia, 43 µM; with MCF7 breast it was greater than 100 µM; in the assay on SN12C renal, greater than 100 µM; in the assay on SK-OV-3 ovarian, greater than 100 µM. Also, the TGI was greater than 100 µM in the assay on CAKI-1 renal; greater than 100 µM in the assay on OVCAR-8 ovarian; greater than 100 µM in the assay with OVCAR-4 ovarian; 43.5 µM in the assay with SF-295 CNS; greater than 100 µM in the assay with UO-31 renal; greater than 100 µM in the assay with HL-60(TB) leukemia. The TGI in the assay on A549 NSCLC was greater than 100 µM; with MDA-MB-435, greater than 100 µM; with NCI-H226 lung, greater than 100 µM; with HOP-92 NSCLC it was greater than 100 µM; in the assay with MDA-N, 59.7 µM; in the assay with SK-MEL-2 melanoma it was 75.4 µM. This compound came in with a TGI in the assay on OVCAR-5 ovarian greater than 100 µM.
Turning to `O=C(O)CN1CCNCCN(CC(=O)O)CCNCC1`, the TGI is 98.9 µM in the assay with SNB-75 CNS; greater than 100 µM in the assay on RXF 393 renal; greater than 100 µM with RPMI-8226 leukemia; greater than 100 µM in the assay on MCF7 breast; greater than 100 µM in the assay with SN12C renal; greater than 100 µM with SK-OV-3 ovarian. Moreover, the TGI in the assay on CAKI-1 renal is greater than 100 µM; in the assay with OVCAR-8 ovarian, greater than 100 µM; with OVCAR-4 ovarian, greater than 100 µM; in the assay with SF-295 CNS, greater than 100 µM; in the assay with UO-31 renal, greater than 100 µM; in the assay with HL-60(TB) leukemia, 15.2 µM. For the same compound, the TGI in the assay with A549 NSCLC is greater than 100 µM; in the assay with MDA-MB-435, greater than 100 µM; with NCI-H226 lung it was greater than 100 µM; in the assay with HOP-92 NSCLC it was greater than 100 µM; in the assay with MDA-N it was greater than 31.6 µM; in the assay on SK-MEL-2 melanoma, greater than 100 µM. Besides, the TGI in the assay with SF-268 CNS and in the assay with OVCAR-5 ovarian was greater than 100 µM each time.
Turning to `C[C@@H](C(=O)O)c1ccc(-c2ccccc2)c(F)c1`, the TGI with SNB-75 CNS, in the assay on RXF 393 renal, in the assay on RPMI-8226 leukemia, with MCF7 breast, in the assay with SN12C renal and in the assay on SK-OV-3 ovarian was greater than 100 µM each time. Further, the TGI in the assay with CAKI-1 renal, in the assay on OVCAR-8 ovarian, with OVCAR-4 ovarian, in the assay on SF-295 CNS, with UO-31 renal and with HL-60(TB) leukemia was greater than 100 µM in each case. Besides, the TGI with A549 NSCLC, with MDA-MB-435, in the assay on NCI-H226 lung, with HOP-92 NSCLC, with MDA-N and in the assay on SK-MEL-2 melanoma was greater than 100 µM each time. Also, the TGI in the assay on SF-268 CNS and in the assay on OVCAR-5 ovarian was greater than 100 µM in each case.
As to `COc1ccc(-n2nnc3c(C#N)c(-c4ccccc4)c(C)n3c2=O)cc1`, the TGI with SNB-75 CNS was 72.1 µM; with RXF 393 renal, 93.8 µM; in the assay with RPMI-8226 leukemia, greater than 100 µM; with MCF7 breast, greater than 100 µM; with SN12C renal, greater than 100 µM; with SK-OV-3 ovarian it was greater than 100 µM. For the same compound, the TGI was greater than 100 µM with CAKI-1 renal; greater than 100 µM in the assay with OVCAR-8 ovarian; greater than 100 µM with OVCAR-4 ovarian; greater than 100 µM in the assay on SF-295 CNS; greater than 100 µM in the assay on UO-31 renal; 68.2 µM in the assay with HL-60(TB) leukemia. In addition, the TGI in the assay on A549 NSCLC was greater than 100 µM; in the assay with MDA-MB-435, greater than 100 µM; in the assay with NCI-H226 lung, greater than 100 µM; in the assay on HOP-92 NSCLC, greater than 100 µM; in the assay on MDA-N it was greater than 100 µM; in the assay with SK-MEL-2 melanoma, 83.8 µM. Moreover, the TGI with SF-268 CNS and in the assay with OVCAR-5 ovarian was greater than 100 µM each time.
With `Cn1c(N(CCO)CCO)cnc1[N+](=O)[O-]`, the TGI in the assay on SNB-75 CNS, in the assay with RXF 393 renal, in the assay with RPMI-8226 leukemia, with MCF7 breast, in the assay with SK-OV-3 ovarian and in the assay on CAKI-1 renal was greater than 100 µM in each case. Also, the TGI in the assay with OVCAR-8 ovarian, in the assay on OVCAR-4 ovarian, in the assay on SF-295 CNS, with UO-31 renal, in the assay with HL-60(TB) leukemia and with A549 NSCLC was greater than 100 µM each time. Further, the TGI with MDA-MB-435, in the assay on NCI-H226 lung, in the assay on HOP-92 NSCLC, in the assay with MDA-N, with SK-MEL-2 melanoma and with SF-268 CNS was greater than 100 µM throughout. The TGI in the assay with OVCAR-5 ovarian was greater than 100 µM.
As for `Cc1ccc(-c2c(C#N)c(-c3ccc([N+](=O)[O-])cc3)c(C#N)c(=O)n2NS(=O)(=O)c2ccc(C)cc2)cc1`, the TGI in the assay with SNB-75 CNS is greater than 100 µM; in the assay on RXF 393 renal it was greater than 100 µM; in the assay with RPMI-8226 leukemia, 47 µM; with MCF7 breast, greater than 100 µM; with SN12C renal, greater than 100 µM; in the assay on SK-OV-3 ovarian, greater than 100 µM. For the same compound, the TGI in the assay on CAKI-1 renal was greater than 100 µM; in the assay on OVCAR-8 ovarian, greater than 100 µM; with OVCAR-4 ovarian, greater than 100 µM; in the assay on SF-295 CNS, greater than 100 µM; in the assay on HL-60(TB) leukemia, 84.3 µM; in the assay on A549 NSCLC, greater than 100 µM. The TGI in the assay with MDA-MB-435, in the assay on NCI-H226 lung, in the assay with HOP-92 NSCLC, with MDA-N, with SK-MEL-2 melanoma and in the assay with SF-268 CNS was greater than 100 µM in each case. The same compound came in with a TGI with OVCAR-5 ovarian greater than 100 µM.
